# Inconclusive results and toxic doses are left out.
# System: P388 leukemia ip, CD2F1 mice, survival T/C
# Assay: NCI In Vivo Anticancer Drug Screen. Data for tumor model P388 Leukemia (intraperitoneal) in CD2F1 (CDF1) mice
# Conditions: endpoint: median survival time, higher = longer survival
# Procedure, shortened: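 Mice carrying the transplanted tumor received test compound or vehicle. Survival was recorded in each group, and the value is the treated-group measurement divided by that of the vehicle-treated control group.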
# [1] = dose: 50.0 mg/kg/injection, schedule: Q01DX009 (ip), vehicle: Klucel (hydroxypropylcellulose) (HPC)
# [2] = dose: 100.0 mg/kg/injection, schedule: Q01DX009 (ip), vehicle: Klucel (hydroxypropylcellulose) (HPC)
# [3] = dose: 200.0 mg/kg/injection, schedule: Q01DX009 (ip), vehicle: Klucel (hydroxypropylcellulose) (HPC)
# [4] = dose: 100.0 mg/kg/injection, schedule: Q01DX009 (ip), vehicle: saline with Tween-80
# [5] = dose: 200.0 mg/kg/injection, schedule: Q01DX009 (ip), vehicle: saline with Tween-80
smiles,measurement,setting,value
O=C(Cn1ccnc1)Nc1ccc(Cl)cc1C(=O)c1ccccc1,T/C,"dose: 50.0 mg/kg/injection, schedule: Q01DX005 (ip), vehicle: saline with Tween-80",95 % of control
same,T/C,"dose: 100.0 mg/kg/injection, schedule: Q01DX005 (ip), vehicle: saline with Tween-80",92 % of control
CC(C)(C)c1cc(C(=O)O)c2soc(=O)c2c1,T/C,[1],106 % of control
same,T/C,[2],109 % of control
same,T/C,[3],111 % of control
C[Si](C)(C)N1CCCC1,T/C,"dose: 25.0 mg/kg/injection, schedule: Q01DX009 (ip), vehicle: saline",105 % of control
same,T/C,"dose: 50.0 mg/kg/injection, schedule: Q01DX009 (ip), vehicle: saline",89 % of control
same,T/C,"dose: 100.0 mg/kg/injection, schedule: Q01DX009 (ip), vehicle: saline",90 % of control
same,T/C,"dose: 200.0 mg/kg/injection, schedule: Q01DX009 (ip), vehicle: saline",107 % of control
O=C1C2CC3CC4C(=O)C5CC1C1C2C3C4C51 (stereo unspecified),T/C,"dose: 50.0 mg/kg/injection, schedule: Q01DX009 (ip), vehicle: saline with Tween-80",94 % of control
same,T/C,[4],102 % of control
same,T/C,[5],97 % of control
COC(=O)C(N)CN (stereo unspecified),T/C,"dose: 43.75 mg/kg/injection, schedule: Q01DX009 (ip), vehicle: saline with Tween-80",97 % of control
same,T/C,"dose: 87.5 mg/kg/injection, schedule: Q01DX009 (ip), vehicle: saline with Tween-80",97 % of control
same,T/C,"dose: 175.5 mg/kg/injection, schedule: Q01DX009 (ip), vehicle: saline with Tween-80",97 % of control
O=C1OCCOCCOCCOCCOC(=O)c2cccc1c2,T/C,"dose: 100.0 mg/kg/injection, schedule: Q04DX003 (ip), vehicle: suspension in saline",100 % of control
same,T/C,"dose: 200.0 mg/kg/injection, schedule: Q04DX003 (ip), vehicle: suspension in saline",104 % of control
same,T/C,"dose: 400.0 mg/kg/injection, schedule: Q04DX003 (ip), vehicle: suspension in saline",99 % of control
NC(=O)CC1(C(=O)O)c2ccccc2-c2ccccc21,T/C,"dose: 100.0 mg/kg/injection, schedule: Q04DX003 (ip), vehicle: saline with Tween-80",97 % of control
same,T/C,"dose: 200.0 mg/kg/injection, schedule: Q04DX003 (ip), vehicle: saline with Tween-80",97 % of control
same,T/C,"dose: 400.0 mg/kg/injection, schedule: Q04DX003 (ip), vehicle: saline with Tween-80",108 % of control
CCOC(=O)C(=O)Nc1ccccc1,T/C,[4],99 % of control
same,T/C,[5],97 % of control
same,T/C,"dose: 400.0 mg/kg/injection, schedule: Q01DX009 (ip), vehicle: saline with Tween-80",99 % of control
CC(=O)OCCN1CCN(CC/C=C2\c3ccccc3Sc3ccc(Cl)cc32)CC1,T/C,"dose: 6.25 mg/kg/injection, schedule: Q01DX009 (ip), vehicle: saline with Tween-80",109 % of control
same,T/C,"dose: 12.5 mg/kg/injection, schedule: Q01DX009 (ip), vehicle: saline with Tween-80",113 % of control
same,T/C,"dose: 25.0 mg/kg/injection, schedule: Q01DX009 (ip), vehicle: saline with Tween-80",113 % of control
CCNC1(N(C)C)N=C(N(C)C)N=C(N(C)C)O1 (stereo unspecified),T/C,"dose: 50.0 mg/kg/injection, schedule: Q01DX005 (ip), vehicle: saline",96 % of control
same,T/C,"dose: 100.0 mg/kg/injection, schedule: Q01DX005 (ip), vehicle: saline",96 % of control
C=C1CCN(c2ccc(N3CCC(=C)C3=O)cc2)C1=O,T/C,"dose: 3.12 mg/kg/injection, schedule: Q01DX009 (ip), vehicle: saline + alcohol",88 % of control
same,T/C,"dose: 6.25 mg/kg/injection, schedule: Q01DX009 (ip), vehicle: saline + alcohol",100 % of control
same,T/C,"dose: 25.0 mg/kg/injection, schedule: Q01DX009 (ip), vehicle: saline + alcohol",88 % of control
same,T/C,"dose: 50.0 mg/kg/injection, schedule: Q01DX009 (ip), vehicle: saline + alcohol",88 % of control
CC[N+](C)(C)c1nc(N(C)C)nc(N(C)C)n1,T/C,"dose: 6.0 mg/kg/injection, schedule: Q01DX005 (ip), vehicle: saline",108 % of control
same,T/C,"dose: 12.0 mg/kg/injection, schedule: Q01DX005 (ip), vehicle: saline",118 % of control
CCN(CC)C(Cl)=Nc1ccc(Cl)cc1,T/C,[1],94 % of control
same,T/C,[2],100 % of control
same,T/C,[3],94 % of control
CCCCCC(C(=O)OCC)/C(C)=N\NC(N)=S (stereo unspecified),T/C,"dose: 60.0 mg/kg/injection, schedule: Q01DX005 (ip), vehicle: Klucel (hydroxypropylcellulose) (HPC)",100 % of control
same,T/C,"dose: 120.0 mg/kg/injection, schedule: Q01DX005 (ip), vehicle: Klucel (hydroxypropylcellulose) (HPC)",98 % of control
same,T/C,"dose: 240.0 mg/kg/injection, schedule: Q01DX005 (ip), vehicle: Klucel (hydroxypropylcellulose) (HPC)",100 % of control
